Test results from US9771563B2, “Chemical approaches for generation of induced pluripotent stem cells” (The Scripps Research Institute, priority 2008, dated 2017).

Experiments:
[1] = tested on: mouse embryonic fibroblasts (129 or OG2 MEFs); test: Screen for iPSC generation from MEFs transduced with Oct4/Klf4 (OK); assay type: cell-based
Procedure: Unmodified MEFs derived from E13-14 embryos of the 129 mice were used for the initial screen. MEFs were plated on Matrigel at 3.5×10^4 cells/well of a 6-well plate and transduced with OK (retroviral vectors expressing Oct4 and Klf4) alone. Within 14-21 days, treated cells were assessed for the appearance of colonies that had the characteristic embryonic stem cell (ESC) colony morphology and were positive for the pluripotency marker alkaline phosphatase (ALP). Such OK-transduced cells generated only a few small non-compact colonies, which were weakly positive for ALP expression. These colonies initially appeared within 21 days after viral transduction and were difficult to expand. Therefore, such assay system offered a clean background for the identification of small molecules having desirable reprogramming inducing activity. Using this system, compounds from a library of around 2000 known small molecules (see Experimental Procedures below) were screened and were identified as hits when they induced the appearance of ESC colonies that were strongly positive for ALP within 14-21 days after treatment. This image-based method provided a more accurate assessment of reprogramming as compared to homogenous reporter-based assay. BIX appeared to have the strongest effect with reproducible induction of more than 1-2 compact ESC-like colonies with high ALP expression. We observed that when MEFs were treated with BIX after OK viral transduction, compact colonies with strong ALP expression could be readily detected within approximately 14-21 days. These cells were also positive for Nanog, Oct4 and SSEA-1 expression. […] However, the reprogramming efficiency in MEFs transduced with OK and treated with BIX was still low, about 2 colonies/3.5×10^4 cells, in comparison to the four factor-induced reprogramming of MEFs or the OK/BIX NPC reprogramming (Shi, Y. et al., Cell Stem Cell, 2:525-528 (2008)). Therefore, we conducted a second screen using a similar protocol, but where BIX was added to the basal media after OK viral transduction. This provided a more permissive platform to identify new small molecules that could further improve reprogramming efficiency. More importantly, this second screen could facilitate discovery of small molecules that impact reprogramming in a more specific manner, for example by acting on signal transduction pathways rather than on histone or DNA modifying enzymes. In this second screen, we again assayed the library of around 2000 known small molecules (see Experimental Procedures), and confirmed two compounds that were able to act in a synergistic manner with BIX to improve reprogramming based on the criteria of the screen. […] Therefore, RG108 was not pursued further for this study. Instead, we focused our phenotypic and functional characterization on another small molecule that was identified in the second screen, BayK, an L-calcium channel agonist. […] Therefore, BayK might play a more specific role in the reprogramming process. When 129 MEFs were transduced with empty retrovirus (negative control); no colonies observed. When 129 MEFs were transduced with OK without small molecules; few small flattened colonies with weak ALP expression present. […] When OK-transduced MEFs were treated with BIX in combination with BayK, a significant increase in the number of ALP^+ colonies that closely resemble the mESC morphology could be observed (˜7 colonies) as compared to OK-transduced MEFs treated with BIX alone (˜2 colonies).
Primary 12952/SvPasCrlf (primary screen) or ROSA26^+/−/OG2^+/− (secondary screen) MEFs were plated onto Matrigel (1:50; BD Biosciences, Bedford, Mass.) coated dishes at a density of 3.5×10^4 cells per well of a 6-well plate. Twenty-four hours later, these cells were transduced overnight with defined retroviruses at 37° C., 5% CO2. […] (all products were from Invitrogen, Carlsbad, Calif., except where mentioned). […]

mES R1 cells = test: Proliferation assay; assay type: cell-based, mouse; conditions: 2 μM BayK, 1 μM BIX; 15, 24, 48 hours; vs DMSO
Procedure: mES R1 cells were plated onto gelatin-coated 6-well plates at a density of 2×10^5 cells/well in complete mES cell media. Upon cell attachment, app. 12 hours, the cells were treated either with DMSO, 1 μM BIX, 2 μM BayK, and a combination of both, in triplicate. At 15, 24 and 48 hours, the cells were detached using trypsin, and counted using a hemocytometer. Trypan blue (Sigma-Aldrich, St. Louis, Mo.) was used for dead cell exclusion.

OG2+/-/ROSA26+/- MEFs = test: Assessment of SOX2 expression after compound treatment (RT-PCR); assay type: cell-based, mouse; conditions: 2 μM BayK, 1 μM BIX, 6 days
Procedure: OG2^+/−/ROSA26^+/− MEFs were plated onto 6-well plate at a density of 3.4×10^4 cells per well. On the following day, the cells were treated with DMSO, 1 μM BIX, 2 μM BayK, and a combination of both, in triplicate, for 6 days. The media was refreshed at day 3. RNA from each well was then isolated using the RNAeasy Mini Kit (Quiagen). Reverse transcription of the RNA was performed using the iScript™ cDNA Synthesis Kit (BioRad, Hercules, Calif.). Amplification of endogenous Sox2 was done using primers previously published (Takahashi, K., Okita, K., Nakagawa, M., and Yamanaka, S. (2007). Induction of pluripotent stem cells from fibroblast cultures. Nat Protoc 2, 3081-3089; Takahashi, K., and Yamanaka, S. (2006). Induction of pluripotent stem cells from mouse embryonic and adult fibroblast cultures by defined factors. Cell 126, 663-676) with Platinum PCR SuperMix (Invitrogen) on a Mastercycler® ep gradient PCR machine (Eppendorf).

cellular reprogramming = test: Enhancement of cellular reprogramming by nuclear receptor ligands; assay type: cell-based
mouse fibroblasts = test: Reprogramming of mouse fibroblasts with exogenous poly-Arg transcription factor proteins; assay type: cell-based; conditions: cells incubated with transcription factor proteins plus agent
Procedure: Mouse fibroblasts were grown in mESC medium supplemented with 8 μg/ml of either Oct4/Sox2/Klf4 or Oct4/Sox2/Klf4/Myc (all proteins comprising poly-Arg as described above) for 6-8 hours, washed, and incubated for 2-3 days in mESC media without the above-listed transcription factors. This (4-12 hours with, 1-3 days without) was repeated a number (1, 2, 3, 4, or more) of times and then the cells were cultured in mESC for two weeks.
Mouse fibroblasts were grown in mESC growth medium [Knockout DMEM (Invitrogen) supplemented with 10% ES-FBS+10% KSR, 0.1 mM 2-ME, 1% Glutamax, 1% Non-essential amino acids, 1% EmbryoMax ESC Qualified Nucleosides (Millipore), and 10^3 units/ml LIF (ESGRO, Chemicon International)] supplemented with 8 μg/ml of Oct4/Sox2/Klf4/Myc (all four transcription factors are tagged with poly-Arg […]; SEQ ID NO:2) for 4-12 hours, followed by culturing the cells in the absence of the Oct4/Sox2/Klf4/Myc polypeptides for one day. This procedure was repeated 4 times. The cells were then cultured in mESC medium for another two weeks. iPSC clones were detected by colony morphology and expression of pluripotency markers. An intermediate iPSC clone, which expresses ALP but not Oct4 (Oct4), was dissociated with Trypsin-EDTA. The clone was then expanded by continuous culturing with regular mESC medium or medium supplemented with 0.5 μM PD0325901, 3 μM CHIR99021, 0.5 μM A-83-01. The number of Oct4-positive colonies were counted 2 weeks after small molecule treatment (FIG. 14).

OG2 MEFs = test: Reprogramming of OG2 MEFs retrovirally transduced with OSKM or OSK (EGFP positive colonies); assay type: cell-based, mouse; conditions: 2 μM SB431542, 5 μM CHIR99021, 0.1 μM PD0325901
Procedure: MEFs were derived from OG2 mice according to the protocol reported on WiCell Research Institute website: “Introduction to human embryonic stem cell culture methods”. OG2 transgenic mice carry both GFP under the control of the Oct4 promoter. MEFs were transduced with either (1) Oct4, Klf4, Sox2 and c-Myc; or (2) Oct4, Klf4, and Sox2 as described (Takahashi & Yamanaka, Cell. 2006; 126:663-676). […] Transduced MEFs were then treated with chemicals or chemical combinations, including GSK-3 inhibitor CHIR99021 (5 μM), TGFβ receptor inhibitor SB431542 (2 μM), MEK inhibitor PD0325901 (0.1 μM) for 11 days (for Oct4, Klf4, Sox2 and c-Myc transduced MEFs) or 13 days (for Oct4, Klf4 and Sox2 transduced MEFs), and EGFP positive colonies were counted.

[2] = tested on: human primary fibroblasts (CRL2097 or BJ); test: Reprogramming of human primary fibroblasts transduced with 4TFs; assay type: cell-based
Procedure: We tested known inhibitors of the TGFβ receptor and MEK on 1×10^4 [Feng, B. et al., Cell Stem Cell 4, 301-12 (2009)] human primary fibroblasts (CRL2097 or BJ) that were retrovirally transduced with the 4TFs (Oct4, Klf4, Sox2 and c-Myc), for their effects on reprogramming kinetics and efficiency. On day 7 (D7) post-infection, the compounds were added, individually or in combinations, and the cultures were examined for iPSCs over the next 1-3 weeks.
The Slc7a1-expressing human fibroblast cells were seeded at 1×10^5 cells/well of a 6 well plate on the day 1. On day 2, 0.25 ml of each retroviral supernatant was added to the cells in the presence of 6 μg/ml polybrene. A second round of transduction was done on day 3. Infection efficiency was estimated by fluorescence microscopy on cells transduced in parallel with GFP or RFP gene-carrying retroviruses. Seven days after initial transduction, fibroblasts were harvested by trypsinization and re-plated at 1×10^4 cells/well of a 6 well plate coated with matrigel (1:50 dilution, cat 354234, BD Biosciences). For compound treatment, the cells were cultured in human reprogramming medium (DMEM/F12, 20% Knockout serum replacer, lx MEM Non-Essential amino acid, lx glutamax, 0.11 mM 2-Mercaptoethanol, 20 ng/ml bFGF and 1,000 U/ml LIF) and were treated with 2 μM SB431542 (Stemgent), 0.5 μM PD0325901 (Stemgent), or combinations of the compounds. The media were changed every 2-3 days depending on the cell density. Seven days after compound treatment, either the plates were fixed and stained for Alkaline phosphatase (ALP) activity, or stained for protein markers, or the cultures were continued with or without indicated splitting by trypsinization till day 30. For split cultures, the cells were split (1:4) and re-plated onto irradiated CF-1 MEF feeder layer (2.5×10^5 cells/well) in each well of 6 well plate and were split (1:10) again on day 21. The cells were maintained in the same media and compound cocktail described above except for the concentrations of PD0325901 (0.5 μM for D14 and 1 μM for D21) and SB431542 (0.5-1 μM after D14). The iPSC colonies were subsequently maintained in conventional hESC media in the absence of the above compounds.
Alkaline phosphatase staining was performed using ALP detection kit (cat no: SCR004, Chemicon) according to the product instructions. For immunocytochemistry, cells were fixed in 4% paraformaldehyde (10 min, RT), washed twice with PBS, blocked using 5% normal donkey serum (Chemicon) and 0.1% TritonX-100 (15 min, RT) and then treated with primary antibodies overnight at 4° C. The primary antibodies used were anti-NANOG (cat no: AB9220, Chemicon, 1:1,000); anti-OCT4 (cat no: sc-5279, Santa Cruz biotech, 1:200), anti-SSEA 4 (cat no: mab4304, Chemicon, 1:500), anti-Tra-1-81 (cat 560123, BD Biosciences, 1:100), anti-Tra-1-81 (mAb 4381, Chemicon, 1:500), anti-βIII TUBULIN (cat no: MMS-435P, Covance Research Products Inc, 1:1000), anti-PDX 1 (1:500) (a kind gift from Dr. C. Wright), anti-BRACHYURY (cat No: AF2085, R & D, final concentration 0.2 μg/ml). The cells were washed twice with PBS and then treated with secondary antibodies for 1 hour at room temperature. The secondary antibodies used were Alexa fluor 488 donkey anti-rabbit or anti-mouse IgG (Invitrogen, 1:1,000) and Alexa fluor 555 donkey anti-rabbit or anti-mouse IgG (Invitrogen, 1:1,000). Nuclei were stained with 0.5 μg/ml DAPI (Sigma). Images were captured using a Nikon Eclipse TE2000-U/X-cite 120 EXFO microscope with a photometric CoolSnap HQ2 camera.
We tested the TGFβ receptor inhibitor (SB431542), MEK inhibitor (PD0325901) and GSK-3 inhibitor (CHIR99021), on human fibroblast crl2097 that were retrovirally transduced with Oct4, Klf4, Sox2 and c-Myc, for their effects on reprogramming kinetics and efficiency. Conditions are the same as set forth in Example 5. Data were collected 8 days after compound treatment.

`COC(=O)C1=C(C)NC(C)=C([N+](=O)[O-])C1c1ccccc1C(F)(F)F` (stereo not shown) [BayK8644] was tested, and the “reprogramming efficiency (GFP+ colonies)” value ([1]; OG2 MEFs transduced with OK, FIG. 3) was “did not increase reprogramming efficiency above OK-transduced MEF control”, the “reprogramming activity on OK-transduced MEFs” value ([1]; in the absence of BIX) was “no observable reprogramming activity on OK-transduced MEFs in the absence of BIX” and the “proliferation of mES cells (cell number)” value (mES R1 cells) was “does not lead to a change in proliferation”. For the same compound, the SOX2 expression (OG2+/-/ROSA26+/- MEFs) was “does not induce SOX2 expression”.

`C=C(c1ccc(C(=O)O)cc1)c1cc2c(cc1C)C(C)(C)CCC2(C)C` [Bexarotene] was tested, and the cellular reprogramming (cellular reprogramming; at 3 μM) was “can enhance cellular reprogramming”.

For `CC(C)C[C@H](NC(=O)OCC1c2ccccc2-c2ccccc21)C(=O)O` [Fmoc-Leu], the cellular reprogramming (cellular reprogramming; used at 5 μM) was “can enhance cellular reprogramming”.

`NC(=O)c1ccc(-c2nc(-c3ccc4c(c3)OCO4)c(-c3ccccn3)[nH]2)cc1` [SB431542] was tested, and the “efficiency and speed of development of pluripotent cells” value (mouse fibroblasts) was “improved efficiency and speed of development of pluripotent cells”, the reprogramming efficiency (OG2 MEFs; Oct4, Klf4, Sox2 and c-Myc transduced MEFs, 11-day treatment) was ~1.8% and the reprogramming efficiency (OG2 MEFs; Oct4, Klf4, and Sox2 transduced MEFs, 13-day treatment) was ~1.2%. The “ALP+ colonies with hESC-like morphology (FIG. 7A)” value ([2]; 4TFs transduced fibroblasts, 7 days after compound treatment, SB431542 at 2 μM) was “yielded colonies with hESC-like morphology as early as 7 days after compound treatment”, the “number of granulate (partially reprogrammed) colonies” value ([2]; 30 days) was “outnumbered by several fold the few hESC-like colonies” and the “dose dependence of effect on reprogramming” value ([2]; FIG. 7) was “dose dependent”. For the same compound, the “ALP+ colonies with characteristic hESC-like morphology” value ([2]; day 7 post-treatment (D14), SB431542 2 μM, PD0325901 0.5 μM, 1×10^4 cells) was 1-2 colonies.
